Reference: publication PMC11520566, “Discovery of pyrazole-based analogs as CDK2 inhibitors with apoptotic-inducing activity: design, synthesis and molecular dynamics study” (RSC Advances, 2024)

Assays:
Assay type in all cases: cell-based, human
CCRF-CEM = assay: NCI 60 five dose assay, Leukemia
HL-60(TB) = assay: NCI 60 five dose assay, Leukemia
K-562 = assay: NCI 60 five dose assay, Leukemia
SW-620 = assay: NCI 60 five dose assay, Colon cancer
SF-268 = assay: NCI 60 five dose assay, CNS cancer
SF-295 = assay: NCI 60 five dose assay, CNS cancer
LOX IMVI = assay: NCI 60 five dose assay, Melanoma
MALME-3M = assay: NCI 60 five dose assay, Melanoma; details: for Percent Growth: MALME-3M
M14 = assay: NCI 60 five dose assay, Melanoma
SK-MEL-2 = assay: NCI 60 five dose assay, Melanoma
OVCAR-4 = assay: NCI 60 five dose assay, Ovarian cancer
OVCAR-8 = assay: NCI 60 five dose assay, Ovarian cancer
UO-31 = assay: NCI 60 five dose assay, Renal cancer
MDA-MB-231/ATCC = assay: NCI 60 five dose assay, Breast cancer
NCI-H23 = assay: NCI 60 single dose screen, Non-small cell lung cancer; details: single dose 10 μM
Description: (§1) The newly synthesized pyrazoles 2a–g, 7a–d, 8a and b, 9, and 10 were submitted to the National Cancer Institute (NCI) Developmental Therapeutics Program (http://www.dtp.nci.nih.gov) for assessment of their potential antiproliferative activity against a panel of NCI 60 cancer cell lines. All compounds were approved for screening against the approved 60 cancer cell lines at a single dose of 10 μM. The human cancer cell lines were derived from 9 variant cancer types including leukemia, melanoma, lung, colon, CNS, ovarian, renal, prostate and breast cancers. The results are presented as percentage of growth inhibition (GI%) of the screened compounds against the full panel of cell lines.
(§2) Under sterile conditions, the cell lines were grown in RPMI 1640 media (Gibco, NY, USA) supplemented with 10% fetal bovine serum (Biocell, CA, USA), and […] cell/mL was used to test the growth inhibition activity of the synthesized compounds. The compounds with concentrations ranging from 0.01 to 100 μM were prepared in phosphate buffer saline. Each compound was initially solubilized in dimethyl sulfoxide (DMSO); however, each final dilution contained less than 1% DMSO. Solutions of different concentrations (0.2 mL) were pipetted into the separate well of a microtiter tray in duplicate. Cell culture (1.8 mL) containing a cell population of […] cells per mL was pipetted into each well. Controls, containing only phosphate buffer saline and DMSO at identical dilutions, were also prepared in the same manner. These cultures were incubated in a humidified incubator at 37 °C. The incubator was supplied with 5% CO2 atmosphere. After 48 h, the cells in each well were diluted 10 times with saline and counted using a Coulter counter. The counts were corrected for the dilution.[34]

NCI-H322M = assay: as above; details: single dose 10 μM
Description: as §1, §2

NCI-H460 = assay: as above; details: single dose 10 μM
Description: as §1, §2

[1] = Homo sapiens, read-out: LC50 (the source's name)

In the case of `CC(=NNc1ccc(S(N)(=O)=O)cc1)c1ccc(NN=C2C(=O)NN=C2Nc2ccccc2)cc1` [Compound 4, 4-(2-(1-(4-(2-(5-oxo-3-(phenylamino)-1,5-dihydro-4H-pyrazol-4-ylidene)hydrazinyl)phenyl)ethylidene)hydrazinyl)benzene sulfonamide], the GI50 (CCRF-CEM; Homo sapiens) is reported as 2.63 µM, the CC50 (CCRF-CEM; [1]) is reported as over 100 µM and the “Percent Growth” value (CCRF-CEM; Log10 Concentration -4.0 Molar) is reported as -31%. For the same compound, the “Percent Growth” value (CCRF-CEM; Log10 Concentration -5.0 Molar) was -5%, the “Percent Growth” value (CCRF-CEM; Log10 Concentration -6.0 Molar) was 90% and the “Percent Growth” value (CCRF-CEM; Log10 Concentration -7.0 Molar) was 100%. For the same compound, the “Percent Growth” value (CCRF-CEM; Log10 Concentration -8.0 Molar) was 98%, the GI50 (HL-60(TB); Homo sapiens) was 2.86 µM and the CC50 (HL-60(TB); [1]) was 60.5 µM. The “Percent Growth” value (HL-60(TB); Log10 Concentration -4.0 Molar) was -70%, the “Percent Growth” value (HL-60(TB); Log10 Concentration -5.0 Molar) was 21% and the “Percent Growth” value (HL-60(TB); Log10 Concentration -6.0 Molar) was 74%. For the same compound, the “Percent Growth” value (HL-60(TB); Log10 Concentration -7.0 Molar) was 87%, the “Percent Growth” value (HL-60(TB); Log10 Concentration -8.0 Molar) was 89% and the GI50 (K-562; Homo sapiens, K562) was 2.29 µM. For the same compound, the CC50 (K-562; Homo sapiens, K562, read-out: LC50 (the source's name)) was 22.8 µM, the “Percent Growth” value (K-562; Log10 Concentration -4.0 Molar) was -100% and the “Percent Growth” value (K-562; Log10 Concentration -5.0 Molar) was -22%. For the same compound, the “Percent Growth” value (K-562; Log10 Concentration -6.0 Molar) was 90%, the “Percent Growth” value (K-562; Log10 Concentration -7.0 Molar) was 87% and the “Percent Growth” value (K-562; Log10 Concentration -8.0 Molar) was 88%. The GI50 (SW-620; Homo sapiens) was 3.18 µM, the CC50 (SW-620; [1]) was 58.8 µM and the “Percent Growth” value (SW-620; Log10 Concentration -4.0 Molar) was -67%. For the same compound, the “Percent Growth” value (SW-620; Log10 Concentration -5.0 Molar) was 7%, the “Percent Growth” value (SW-620; Log10 Concentration -6.0 Molar) was 93% and the “Percent Growth” value (SW-620; Log10 Concentration -7.0 Molar) was 102%. For the same compound, the “Percent Growth” value (SW-620; Log10 Concentration -8.0 Molar) was 102%, the GI50 (SF-268; Homo sapiens) was 2.22 µM and the CC50 (SF-268; [1]) was 31.5 µM. The “Percent Growth” value (SF-268; Log10 Concentration -4.0 Molar) was -77%, the “Percent Growth” value (SF-268; Log10 Concentration -5.0 Molar) was -23% and the “Percent Growth” value (SF-268; Log10 Concentration -6.0 Molar) was 89%. The “Percent Growth” value (SF-268; Log10 Concentration -7.0 Molar) was 95%, the “Percent Growth” value (SF-268; Log10 Concentration -8.0 Molar) was 85% and the GI50 (SF-295; Homo sapiens) was 3.67 µM. The CC50 (SF-295; [1]) was 38.7 µM, the “Percent Growth” value (SF-295; Log10 Concentration -4.0 Molar) was -95% and the “Percent Growth” value (SF-295; Log10 Concentration -5.0 Molar) was 15%. The “Percent Growth” value (SF-295; Log10 Concentration -6.0 Molar) was 96%, the “Percent Growth” value (SF-295; Log10 Concentration -7.0 Molar) was 96% and the “Percent Growth” value (SF-295; Log10 Concentration -8.0 Molar) was 83%. For the same compound, the GI50 (LOX IMVI; Homo sapiens) was 2.13 µM, the CC50 (LOX IMVI; [1]) was 8.81 µM and the “Percent Growth” value (LOX IMVI; Log10 Concentration -4.0 Molar) was -100%. The “Percent Growth” value (LOX IMVI; Log10 Concentration -5.0 Molar) was -59%, the “Percent Growth” value (LOX IMVI; Log10 Concentration -6.0 Molar) was 103% and the “Percent Growth” value (LOX IMVI; Log10 Concentration -7.0 Molar) was 102%. The “Percent Growth” value (LOX IMVI; Log10 Concentration -8.0 Molar) was 98%, the GI50 (MALME-3M; Homo sapiens, Malme-3M) was 1.98 µM and the CC50 (MALME-3M; Homo sapiens, Malme-3M, read-out: LC50 (the source's name)) was 7.49 µM. For the same compound, the “Percent Growth” value (MALME-3M; Log10 Concentration -4.0 Molar) was -100%, the “Percent Growth” value (MALME-3M; Log10 Concentration -5.0 Molar) was -72% and the “Percent Growth” value (MALME-3M; Log10 Concentration -6.0 Molar) was 102%. The “Percent Growth” value (MALME-3M; Log10 Concentration -7.0 Molar) was 97%, the “Percent Growth” value (MALME-3M; Log10 Concentration -8.0 Molar) was 89% and the GI50 (M14; Homo sapiens) was 2.83 µM. For the same compound, the CC50 (M14; [1]) was 35.1 µM, the “Percent Growth” value (M14; Log10 Concentration -4.0 Molar) was -80% and the “Percent Growth” value (M14; Log10 Concentration -5.0 Molar) was -14%. The “Percent Growth” value (M14; Log10 Concentration -6.0 Molar) was 103%, the “Percent Growth” value (M14; Log10 Concentration -7.0 Molar) was 101% and the “Percent Growth” value (M14; Log10 Concentration -8.0 Molar) was 93%. The GI50 (SK-MEL-2; Homo sapiens) was 2.11 µM, the CC50 (SK-MEL-2; [1]) was 9.1 µM and the “Percent Growth” value (SK-MEL-2; Log10 Concentration -4.0 Molar) was -96%. The “Percent Growth” value (SK-MEL-2; Log10 Concentration -5.0 Molar) was -56%, the “Percent Growth” value (SK-MEL-2; Log10 Concentration -6.0 Molar) was 101% and the “Percent Growth” value (SK-MEL-2; Log10 Concentration -7.0 Molar) was 104%. For the same compound, the “Percent Growth” value (SK-MEL-2; Log10 Concentration -8.0 Molar) was 98%, the GI50 (OVCAR-4; Homo sapiens) was 2.84 µM and the CC50 (OVCAR-4; [1]) was 40.7 µM. For the same compound, the “Percent Growth” value (OVCAR-4; Log10 Concentration -4.0 Molar) was -80%, the “Percent Growth” value (OVCAR-4; Log10 Concentration -5.0 Molar) was -3% and the “Percent Growth” value (OVCAR-4; Log10 Concentration -6.0 Molar) was 94%. The “Percent Growth” value (OVCAR-4; Log10 Concentration -7.0 Molar) was 98%, the “Percent Growth” value (OVCAR-4; Log10 Concentration -8.0 Molar) was 94% and the GI50 (OVCAR-8; Homo sapiens) was 2.59 µM. For the same compound, the CC50 (OVCAR-8; [1]) was 29 µM, the “Percent Growth” value (OVCAR-8; Log10 Concentration -4.0 Molar) was -95% and the “Percent Growth” value (OVCAR-8; Log10 Concentration -5.0 Molar) was -11%. The “Percent Growth” value (OVCAR-8; Log10 Concentration -6.0 Molar) was 93%, the “Percent Growth” value (OVCAR-8; Log10 Concentration -7.0 Molar) was 105% and the “Percent Growth” value (OVCAR-8; Log10 Concentration -8.0 Molar) was 97%. The GI50 (UO-31; Homo sapiens) was 19.4 µM, the CC50 (UO-31; [1]) was over 100 µM and the “Percent Growth” value (UO-31; Log10 Concentration -4.0 Molar) was 2%. For the same compound, the “Percent Growth” value (UO-31; Log10 Concentration -5.0 Molar) was 69%, the “Percent Growth” value (UO-31; Log10 Concentration -6.0 Molar) was 81% and the “Percent Growth” value (UO-31; Log10 Concentration -7.0 Molar) was 89%. For the same compound, the “Percent Growth” value (UO-31; Log10 Concentration -8.0 Molar) was 84%, the GI50 (MDA-MB-231/ATCC; Homo sapiens) was 2 µM and the CC50 (MDA-MB-231/ATCC; [1]) was 8.28 µM. The “Percent Growth” value (MDA-MB-231/ATCC; Log10 Concentration -4.0 Molar) was -100%, the “Percent Growth” value (MDA-MB-231/ATCC; Log10 Concentration -5.0 Molar) was -63% and the “Percent Growth” value (MDA-MB-231/ATCC; Log10 Concentration -6.0 Molar) was 99%. For the same compound, the “Percent Growth” value (MDA-MB-231/ATCC; Log10 Concentration -7.0 Molar) was 99%, the “Percent Growth” value (MDA-MB-231/ATCC; Log10 Concentration -8.0 Molar) was 95% and the GI% (NCI-H23) was 99.80%. It also gave a GI% (NCI-H322M) of 90.78% and a GI% (NCI-H460) of 91.13%.
